Measured values as given in US20190336453A1, “ORAL DISPERSIBLE FILM COMPOSITION” (BonAyu Lifesciences Private Limited, priority 2017, published 2019).

Key:
Assay type in all cases: physicochemical
UV assay of actives = conditions: UV absorbance at λmax, sample vs standard; ODF samples Examples 3-5
Procedure: A stock solution of 1000 μg/ml of alpha lipoic acid were prepared in methanol and measured absorbance at 322 nm.
Standard β-carotene for identification was prepared in DCM to obtain 1000 μg/mL and measured absorbance at 461 nm.
2 ml of the standard and sample solution of folic acid was taken in marked test tubes. In each test tube, 2 ml of 0.02% potassium permanganate solution, 2 ml 2% […] solution, 2 ml 4 M hydrochloric acid solution, 1 ml 5% ammonium sulphamate solution and 1 ml dye solution (0.1% N, N diethyl aniline dye solution in iso propyl alcohol) added and mixed well, then kept for 15 minute at room temperature. It was absorbance recorded at 535 nm against blank.
2 ml of the standard and sample solution of Vitamin B6 was taken in marked test tubes. In each test tube, 1 ml of ammonium buffer (in water), 1 ml of 20% sodium acetate (in water), 1 ml of 5% boric acid (in water) and 1 ml dye (2,6-di-chloroquinine chorimide) solution added and mixed well. It was absorbance recorded at 650 nm against blank.
The assay were prepared of standard and sample solutions of four actives, that is, lipoic acid, β-carotene, folic acid and Vitamin B6 respectively.

[1] = Gas chromatography assay of actives in mouth freshener film; conditions: for Assay result (%): GC result relative to formula content, mouth freshener film; for GC Result (%): content in mouth freshener film
From the text: Gas Chromatography is quantitative study use to determine assay of actives. GC was done by Bangalore Testing Laboratories Pvt. Ltd., Bangalore (FIG. 8). The GC is used to observe whether the active is intact in the film without its decomposition. Table 15 illustrated all the characteristic peaks of the actives (menthol, thymol, methyl salicylate, eucalyptol) used in the composition.

[2] = Raman spectroscopy for stability of active after HME; conditions: ODF containing Vitamin B12 (Example 6), Raman spectra
Procedure: Raman spectroscopy is a spectroscopic technique commonly used in chemistry to provide a structural fingerprint by which molecules can be identified. It can identify a particular molecule/API based on the Raman shift. The formulated ODFs were analyzed using Raman spectra for identification of stability of active in the delivery system after processing using HME. The Raman spectra was recorded with a LabRam HR800 (Horiba Jovan Yvon, UK) equipped with a 534-nm Ar—Ne laser. The laser excitation was focused using a 50 objective (Olympus Corporation, Japan) and the scattered light was totally transmitted through the notch filter towards the confocal hole and entrance slit of the spectrograph. The stokes-shifted Raman scatter was dispersed using a […] grating onto a peltier-cooled changed-coupled device (CCD, Andor Technology PLC) to capture a spectrum. Each sample had their spectra measured using […] excitation (at 534 nm) of 250 mW and continuous readout of Raman shift spectrum from 0 to 3500 cm^−1. Spectra were acquired using a 50× objective and a […] confocal hole. A 600 lines/mm rotatable diffraction grating along a path length of 800 mm was used to simultaneously scan a range of frequencies. Raman spectra were collected using a Synapse CCD detector (1024 pixels).

[3] = In-vitro disintegration time during formulation development (saliva stimulant and flavour optimisation)
From the text: The purpose of using saliva stimulating agents is to increase the rate of production of saliva that would aid in the faster disintegration of the rapid dissolving strip formulations.
The concentration of menthol, eucalyptol and sucralose was optimized according to the mouth feel, freshening effect and the formulation was checked for its effect on disintegration time (Table 5).

[4] = Thermogravimetric analysis (TGA); conditions: 30-360° C. at 20° C./min
Procedure: Thermogravimetric analysis (TGA) studies (Perkin Elmer Pyris 1, Shelton, Conn., USA) were performed to estimate the thermal stability of the actives and excipients during HME processing. Data were analyzed using Pyris software. The API excipients were heated from 30-360° C. at 20° C./min.

Row | Assay of actives Result (%) (UV assay of actives) | Assay result (%) [1] [%] | GC Result (%) [1] | Compound | further results
1 | 100.5 |  |  | O=C(O)CCCCC1CCSS1 (centres unmarked) [Lipoic acid] | 
2 |  | 92.1 | 0.035% | CC1CCC(C(C)C)C(O)C1 (centres unmarked) [Menthol] | 
3 |  | 104.3 | 0.097% | Cc1ccc(C(C)C)c(O)c1 [Thymol] | 
4 | 98.28 |  |  | CC1=C(/C=C/C(C)=C/C=C/C(C)=C/C=C/C=C(C)/C=C/C=C(C)/C=C/C2=C(C)CCCC2(C)C)C(C)(C)CCC1 [B carotene] | 
5 | 99.1 |  |  | Nc1nc2ncc(CNc3ccc(C(=O)N[C@@H](CCC(=O)O)C(=O)O)cc3)nc2c(=O)[nH]1 [Folic acid] | 
6 | 99.3 |  |  | Vit B6 | 
7 |  |  |  | Vitamin B12 | stability of active after twin-screw HME processing [2]: does not degrade
8 |  | 92.8 | 0.052% | COC(=O)c1ccccc1O [Methyl Salicylate] | 
9 |  |  |  | O=C(O)CC(O)(CC(=O)O)C(=O)O [Citric acid] | Disintegration time ([3]; saliva stimulating agent at 1 % composition): 14 s; Disintegration time ([3]; saliva stimulating agent at 5 % composition): Less than 10 seconds; Disintegration time ([3]; saliva stimulating agent at 10 % composition): Less than 10 seconds
10 |  |  |  | OC[C@H]1O[C@H](O[C@]2(CCl)O[C@H](CCl)[C@@H](O)[C@@H]2O)[C@H](O)[C@@H](O)[C@H]1Cl [Sucralose] | loss of weight [4]: < 7%
11 |  | 96.6 | 0.023(cineole % | CC12CCC(CC1)C(C)(C)O2 [Eucalyptol] | 
